The source made the active and inactive calls. The calls are words filed in the database; no cut-off is given here.
Legend:
[1] = system: Staphylococcus ureilyticus; assay: Antibacterial activity against clinical isolate Staphylococcus ureilyticus 1972 measured after 24 hrs by broth microdilution method; type: functional
Staphylococcus aureus [2] = assay: Antibacterial activity against Staphylococcus aureus ATCC 29213 measured after 24 hrs by broth microdilution method; type: functional
Bacillus subtilis = assay: Antibacterial activity against Bacillus subtilis 168 measured after 24 hrs by broth microdilution method; type: functional
Micrococcus luteus = assay: Antibacterial activity against Micrococcus luteus clinical isolate measured after 24 hrs by broth microdilution method; type: functional
Escherichia coli [3] = assay: Antibacterial activity against Escherichia coli MG 1655 measured after 24 hrs by broth microdilution method; type: functional
Pseudomonas aeruginosa [4] = assay: Antibacterial activity against Pseudomonas aeruginosa ATCC 27853 measured after 24 hrs by broth microdilution method; type: functional
[5] = Cytotoxicity against human HEK293 cells assessed as cell viability measured after 72 hrs by MTT assay; type: cell-based
[6] = Cytotoxicity against human mesenchymal stem cells assessed as cell viability measured after 72 hrs by MTT assay; type: cell-based
[7] = Cytotoxicity against human skin fibroblasts assessed as cell viability measured after 72 hrs by MTT assay; type: cell-based, Fibroblast
Staphylococcus aureus [8] = assay: Antibacterial activity against clinical isolate methicillin-resistant Staphylococcus aureus 713 measured after 24 hrs by broth microdilution method; type: functional
Staphylococcus aureus [9] = assay: Antibacterial activity against clinical isolate methicillin-resistant Staphylococcus aureus 983 measured after 24 hrs by broth microdilution method; type: functional
Staphylococcus aureus [10] = assay: Antibacterial activity against clinical isolate methicillin-resistant Staphylococcus aureus 1053 measured after 24 hrs by broth microdilution method; type: functional
[11] = system: Staphylococcus intermedius; assay: Antibacterial activity against clinical isolate methicillin-resistant Staphylococcus intermedius 1061 measured after 24 hrs by broth microdilution method; type: functional
Staphylococcus aureus [12] = assay: Antibacterial activity against clinical isolate methicillin-resistant Staphylococcus aureus 1065 measured after 24 hrs by broth microdilution method; type: functional
Staphylococcus aureus [13] = assay: Antibacterial activity against clinical isolate methicillin-resistant Staphylococcus aureus 1131 measured after 24 hrs by broth microdilution method; type: functional
[14] = system: Staphylococcus intermedius; assay: Antibacterial activity against clinical isolate methicillin-resistant Staphylococcus intermedius 1143 measured after 24 hrs by broth microdilution method; type: functional
Staphylococcus aureus [15] = assay: Antibacterial activity against clinical isolate Staphylococcus aureus 25 measured after 24 hrs by broth microdilution method; type: functional
Enterococcus faecalis [16] = assay: Antibacterial activity against clinical isolate Enterococcus faecalis 23 measured after 24 hrs by broth microdilution method; type: functional
Enterococcus faecalis [17] = assay: Antibacterial activity against clinical isolate Enterococcus faecalis 3063 measured after 24 hrs by broth microdilution method; type: functional
Acinetobacter sp. = assay: Antibacterial activity against clinical isolate Acinetobacter sp. 3 measured after 24 hrs by broth microdilution method; type: functional
Pseudomonas sp. = assay: Antibacterial activity against clinical isolate Pseudomonas sp. 5 measured after 24 hrs by broth microdilution method; type: functional
Klebsiella sp. = assay: Antibacterial activity against clinical isolate Klebsiella sp. 11 measured after 24 hrs by broth microdilution method; type: functional
Proteus sp. = assay: Antibacterial activity against clinical isolate Proteus sp. 17 measured after 24 hrs by broth microdilution method; type: functional; settings: Proteus sp. (in: enterobacteria)
Escherichia coli [18] = assay: Antibacterial activity against clinical isolate Escherichia coli 718 measured after 24 hrs by broth microdilution method; type: functional
Moraxella = assay: Antibacterial activity against clinical isolate Moraxella 765 measured after 24 hrs by broth microdilution method; type: functional
Klebsiella pneumoniae = assay: Antibacterial activity against clinical isolate Klebsiella pneumoniae 1813 measured after 24 hrs by broth microdilution method; type: functional
Pseudomonas aeruginosa [19] = assay: Antibacterial activity against clinical isolate Pseudomonas aeruginosa 1945 measured after 24 hrs by broth microdilution method; type: functional
Serratia marcescens = assay: Antibacterial activity against clinical isolate Serratia marcescens 1966 measured after 24 hrs by broth microdilution method; type: functional
Staphylococcus aureus [20] = assay: Antibacterial activity against Staphylococcus aureus assessed as fold increase in MIC after 8 passages by serial dilution method; type: functional, organism-based; settings: time 24.0 hrs
Escherichia coli [21] = assay: Antibacterial activity against Escherichia coli assessed as fold increase in MIC after 4 passages by serial dilution method; type: functional, organism-based; settings: time 24.0 hrs
[22] = Acute toxicity in po dosed C57BL/6CBA mouse measured upto 7 days; type: organism-based; settings: in vivo, time <=7 day
[23] = Lipophilicity, logP of the compound; type: physicochemical; settings: octanol/water

SMILES: CCCCCCCCCCCCCC(=O)NCCC[N+](C)(C)Cc1ccccc1.[Cl-] [MIRAMISTIN]
- MIC [1]: > 64 µg/mL
- MIC (Staphylococcus aureus [2]): 2 µg/mL
- MIC (Bacillus subtilis): 4 µg/mL
- MIC (Micrococcus luteus): 2 µg/mL
- MIC (Escherichia coli [3]): 8 µg/mL
- MIC (Pseudomonas aeruginosa [4]): 1 µg/mL
- CC50 at 72 h [5]: 6.08 µg/mL
- CC50 at 72 h [6]: 4.16 µg/mL
- CC50 at 72 h [7]: 7.21 µg/mL
- MIC (Staphylococcus aureus [8]): 64 µg/mL
- MIC (Staphylococcus aureus [9]): > 64 µg/mL
- MIC (Staphylococcus aureus [10]): 32 µg/mL
- MIC [11]: 64 µg/mL
- MIC (Staphylococcus aureus [12]): 32 µg/mL
- MIC (Staphylococcus aureus [13]): 32 µg/mL
- MIC [14]: 64 µg/mL
- MIC (Staphylococcus aureus [15]): 16 µg/mL
- MIC (Enterococcus faecalis [16]): 4 µg/mL
- MIC (Enterococcus faecalis [17]): 16 µg/mL
- MIC (Acinetobacter sp.): > 64 µg/mL
- MIC (Pseudomonas sp.): > 64 µg/mL
- MIC (Klebsiella sp.): > 64 µg/mL
- MIC (Proteus sp.): > 64 µg/mL
- MIC (Escherichia coli [18]): 64 µg/mL
- MIC (Moraxella): > 64 µg/mL
- MIC (Klebsiella pneumoniae): 16 µg/mL
- MIC (Pseudomonas aeruginosa [19]): 64 µg/mL
- MIC (Serratia marcescens): > 64 µg/mL
- MIC (Staphylococcus aureus [20]): Active
- MIC (Escherichia coli [21]): Active
- LD50 at 168 h [22]: 1000 mg/kg
- logP [23]: 2.43
